Ends that are not written are not given here.

The test system of experiment [1] is adjuvant induced arthritis in rats. The experiment is described as follows: Adjuvant induced arthritis in rats. Format: in vivo, rat. The following applies: for EFFECT: peptides 7 mg/rat, CS 50 mg/kg, DXM 2 mg/kg, given with MTB adjuvant; for tail thickness: n = 5.
Experiment [2] concerns 2B4.11 T-cell activation (IL-2 production). The experiment is described as follows: Antigen presentation assay (IL-2 production by 2B4.11 T-cells, CTLL proliferation readout). It counts as cell-based. The following applies: 100 μM. The text has this:
An antigen presentation assay (described below) examined the ability of a number of peptides to inhibit T-cell activation following antigen recognition, by measuring the product of T-cell activation, Interleukin-2 (IL-2).
Material. The following cell lines were used: 2B4.11, a T-cell hybridoma that expresses a complete antigen receptor on the cell surface (Samelson et al., 1983) and produces IL-2 following antigen recognition (cytochrome c). Interleukin-2 dependent T-cell line (CTLL) for conventional biological IL-2 assays; and the B-cell hybridoma cell line LK 35.2 (LK, I-E^k bearing; Kappler et al., 1982) which acts as the antigen presenting cell. The hybridomas were grown in TCM. Cytochrome c (Sigma, USA) was added in the media to give a final concentration of 50 μM in the antigen presenting assay.
Peptides examined included: core peptide, seven other control peptides from a variety of sources having an equivalent length to core peptide and peptides A, B, C, D, E and F. The final concentration of the peptides in the antigen presentation assay was examined at several levels ranging from 10 μM to 100 μM.
Method. […] Supernatants were recovered and IL-2 content determined by CTLL proliferation. […] In addition to measuring ^3 H-thymidine incorporation, IL-2 measurements (IU/ml) were also determined. […]

In the next experiment the test system is TCR on 2B4.11 cells. The experiment is described as follows: TCR assembly and cell surface expression on T-cells by flow cytometry. It counts as cell-based. How it is done:
The T-cell hybridoma 2B4.11 which expresses a complete TCR on the cell surface was used as a positive control to assess the effects of peptides on TCR expression. The cells were grown in TCM. The β-deficient variant 21.2.2 and the β- and .zeta.-deficient cell line 3.12.29, derived by repetitive subcloning of 2B4.11 cells (Sussman et al., 1988) and lacking TCR expression were used as negative controls.
Peptides tested included core peptide, lipopeptides and a peptide from tumor necrosis factor receptor termed 558 (used as a negative control). […]
The following antibodies were used for immuno-precipitation and flow cytometry analysis: Mouse IgG2a monoclonal antibody (MAb) against TCR-α chain of the T-cell hybridoma 2B4 (A2B4-2, Samelson et al., 1983), MAb against 2B4.11 TCR-β chain (K)25), hamster IgG anti-CD3-ε MAb (145-2C11 [2C11], Leo et al., 1987), rabbit anti-CD3-ε polyclonal antiserum raised against purified mouse CD3-ε (127, Minami et al., 1987), anti-CD3-δ polyclonal antibody (R9) raised in goat immunized with a COOH-terminal peptide of the mouse CD3-δ chain (Samelson et al., 1986).
FACS analysis: 1×10^6 (2B4.11, 21.2.2) cells were incubated with a number of separate peptides and lipopeptides in a final concentration of 10 μM overnight. The cells were then wvashed with PBS and incubated with 50 μl primary antibody (A2B4 or 2C11) for 30 mins at 4° C. […]

Experiment [3] deals with experimental allergic neuritis in Lewis rats. The experiment is described as follows: Experimental allergic neuritis (EAN). It counts as in vivo, rat. Particulars: peptide added to immunisation emulsion at 70 mg/ml.
In experiment [4] the test system is diabetes in NOD/Lt (F) mice. The experiment is described as follows: Cyclophosphamide induced diabetes in NOD/Lt (F) mice. Format: in vivo, mouse. Particulars: for PERCENTAGE OF MICE DEVELOPING DIABETES: 250 μg s.c. on Day -1, 0 and 1, n = 16. How it is done: In yet another model of T-cell mediated disease the effects of subcutaneously injected core peptide on the induction of diabetes in NOD/Lt (F) mice was tested "blind" by an independent experimenter (Prof L Harrison, WEHI, Melbourne). NOD/Lt(F) mice 10 weeks old at experimental Day 0. This is a high-incidencestrain commonly used as an animal model for diabetes. Core peptide dissolved in squalane at a stock concentration of 3.33 mg/ml. Ovalbumin used as a control was suspended in squalane at a stock concentration of 3.33 mg/ml. Peptide and ovalbumin were "solubilised" just prior to injection, with vortexing. A total of 250 μg (75 μl) was injected subcutaneously on the right flank on Day -1, 0 and 1. Mice were given intraperitoneal cyclophosphamide in water at 300 mg/kg on Day 0. Blood glucose measurements were taken on Day 0, 10, 14 and 21. There were 16 mice in the treatment group and 16 in the ovalbumin control group.

On to `C[C@@H]1C[C@H]2[C@@H]3CCC4=CC(=O)C=C[C@]4(C)[C@@]3(F)[C@@H](O)C[C@]2(C)[C@@]1(O)C(=O)CO` [DXM, dexamethasone, reference compound], for which, in experiment [1] (2 mg/kg), the “onset of arthritis delayed by” value lay within 3 to 4 days. Moreover, in experiment [1], the EFFECT result is given as “No effect”.

GLRILLLKV [core peptide]: the results for the “EFFECT OF PEPTIDE” value in experiment [1] (1.7 mg), in experiment [1] (3.5 mg) and in experiment [1] (7 mg) were “No effect”, “Protective” and “Protective”, respectively. Besides, the tail thickness turned out to be 7.62 mm in experiment [1] (DAY 5, MTB + peptide); 8.24 mm in experiment [1] (DAY 10, MTB + peptide); 8.76 mm in experiment [1] (DAY 15, MTB + peptide); 8.96 mm in experiment [1] (DAY 20, MTB + peptide); 9.10 mm in experiment [1] (DAY 25, MTB + peptide). Besides, the “ulceration and inflammation at the site of injection” value in experiment [1] (compared with MTB alone) was “not present”. In addition, the “effect on adjuvant arthritis” value in experiment [1] (comparison among peptides) is on record as “Best results”. In experiment [1] (first experiment, 3 rats per group, 0.1 ml suspension in adjuvant, after 18 days), the “animals with no evidence of arthritis” value is listed as 2/3. Moreover, the EFFECT entry in experiment [1] is “Protective”. The “difference in tail measurements versus saline injected rats” value in experiment [1] (rat, in vivo) is “not statistically significant”. Moreover, in experiment [2], the “reduction in IL-2 production compared to control” value is on record as 15%-30%. In the experiment on TCR on 2B4.11 cells (10 μM, overnight, 2B4.11 cells), the “cell surface expression of TCR” value is given as “did not alter the cell surface expression”. In addition, the “T-cell surface antigen receptor expression” value with TCR on 2B4.11 cells (100 μM, incubation 1-10 days) was “no change in T-cell surface antigen receptor expression”. For the same compound, the “induction and clinical severity of EAN” value in experiment [3] was “delayed induction and clinical severity of disease”. Further, the “PERCENTAGE OF MICE DEVELOPING DIABETES” value in experiment [4] (DAY 0) was found to be 0%; in experiment [4] (DAY 10), 0%; in experiment [4] (DAY 14) it was 5%; in experiment [4] (DAY 21) it was 12%. Further, in experiment [4] (mouse, in vivo), the “effect on the induction of autoimmune beta cell destruction (diabetes)” value is recorded as “protective effect”.

Consider “Ovalbumin: Ovalbumin used as a control, suspended in squalane [reference compound]”, for which the “PERCENTAGE OF MICE DEVELOPING DIABETES” value in experiment [4] (DAY 0) came out at 0%; in experiment [4] (DAY 10) it was 0%; in experiment [4] (DAY 14) it was 42%; in experiment [4] (DAY 21) it was 65%.

Turning to `CCCCCCCCCCCCCCCC(=O)O` [Palmitic acid, reference compound], in experiment [2], the “effect on IL-2 production” value was “did not affect IL-2 production”.

Values taken from US6057294A, “Peptide” (Northern Sydney Area Health Service of Pacific Highway, priority 1995, dated 2000).
